Source: US8618068B2, “Methods and low dose regimens for treating red blood cell disorders” (priority 2009, dated 2013)

Key:
[1] = Immunotoxicology weight-of-evidence analysis, repeat dose dog study; assay type: in vivo, Beagle dog
From the text: (§1) The immunotoxicological potential of DMB has been evaluated by a weight-of-evidence analysis of the data generated in the repeat dose Sprague Dawley rat and Beagle dog studies. In both studies, there were no effects of treatment on WBC levels or lymph node histopathology, which are predictive of potential immunotoxicity.

[2] = Immunotoxicology weight-of-evidence analysis, repeat dose rat study; assay type: in vivo, Sprague Dawley rat
From the text: as §1

[3] = test system: human peripheral lymphocytes; experiment: Chromosome aberrations in human peripheral lymphocytes; assay type: cell-based
Protocol: DMB was examined for the potential to induce chromosome aberrations in human peripheral lymphocytes in the presence and absence of an exogenous metabolic activation system (S9 mix). In the 3-hour cultures (without or with activation), the highest three concentrations (2450, 3500, and 5000 μg/mL) were analyzed for chromosome aberrations. In the 22-hour treatment, 288, 412 and 588 μg/ML were analyzed for chromosome aberrations. […] The aberrations in control cultures were within historical ranges. DMB was therefore considered negative for inducing structural or numerical chromosome aberrations in human peripheral lymphocytes with and without metabolic activation.

reticulocyte counts = experiment: Reticulocyte counts in transgenic mice; assay type: in vivo; conditions: 500 mg/kg/day
From the text: (§2) Transgenic mice containing the human β globin gene locus in a yeast artificial chromosome (βYAC) displaying the correct developmental regulation of ε-, γ-, and β-globin genes (with a silenced y-globin gene in the adult stage) were used to study the effects of DMB on γ-globin induction and erythroid cell production. In the μLCR-human A γ-globin transgenic mice, the y-globin mRNA expression relative to murine α-globin mRNA was increased by a mean of 1.8-fold above the baseline after treatment with DMB. In the βYAC transgenic mice at intraperitoneal (IP) doses of 500 mg/kg/day, DMB induced a 2-fold increase in human γ-globin mRNA synthesis relative to that of total non-α-globin. This level of induction was similar to that seen with 1,000 mg/kg/day of butyrate, and the changes were observed from 3 days after treatment initiation and persisted until 3 to 5 days after treatment termination.
Reticulocytosis was observed from day 3 up to day 12 (at the end of sampling).

human γ-globin mRNA = experiment: Human γ-globin mRNA synthesis in βYAC transgenic mice; assay type: in vivo; conditions: IP 500 mg/kg/day
From the text: as §2

γ globin chain = γ globin chain protein synthesis in anemic baboons; assay type: in vivo; conditions: mean of three animals
Protocol: Expression of γ-globin and erythroid cell production was evaluated in a primate model in which baboons are phlebotomized on a daily basis to simulate the chronic RBC destruction associated with hemoglobinopathies. In this model, baboons, aged 2 to 3 years, had 2.5 to 7 mL/kg of blood withdrawn daily, and the volume replaced with an identical volume of normal saline. Hemoglobin levels were lowered relative to control levels, but were maintained between 6.5 to 7.5 g/dL, the level necessary for the modulation of globin genes in this animal species. The animals were supplemented with iron dextran and folic acid. The phlebotomy regimen effectively exchanged the animals' total blood volume every 10 to 20 days.
Globin chain protein synthesis was measured in DMB treated animals using ^3H-leucine-labeled reticulocytes before and 2 and 4 days after treatment. Complete blood counts and reticulocyte counts were monitored 3 times per week and plasma concentrations of the test article was determined. DMB was administered intravenously (IV, daily) or orally via nasogastric gavage under light anesthesia (on 3 alternating days per week for up to 6 weeks), on a dose-escalation schedule with starting doses of 500 to 800 mg/kg. If γ globin induction was observed, lower doses (40-200 mg/kg) were tested. Recombinant human erythropoietin (rhu-EPO) was also administered in separate treatment courses to 2 baboons at doses of 300 U/kg three times per week subcutaneously as a positive control for the erythropoietic effects of DMB. Treatments were performed in individual baboons.
Induction of γ globin chain expression was evaluated by measuring γ globin protein synthesis.

γ-globin mRNA = γ-globin mRNA in μLCR-human Aγ-globin transgenic mice; assay type: in vivo; conditions: after treatment with DMB
From the text: as §2

[4] = Phase 2 trial in thalassemia intermedia patients, safety; assay type: in vivo, human
Protocol: A randomized, doubled blind, placebo-controlled, multiple ascending dose Phase I/II trial was conducted in 21 adult patients with beta thalassemia intermedia, including 14 patients with HbE/β^0 thalassemia from Thailand and 7 patients with β^+/β^0 thalassemia (including 12 different beta globin gene mutations). Study medication was taken as a single daily dose of DMB for 8 weeks followed minimally by a 4 week break and follow-up period. Four ascending dose levels (10, 20, 30, and 40 mg/kg/day) were sequentially evaluated in 4 dose level cohorts after the preceding dose and schedule were determined safe by an independent and unblinded Safety Monitoring Committee.
All treatment groups had two placebo patients; placebo patients in the first dose group were randomized to treatment in the second dose group. Ten patients in Thailand (all HbE type) were treated with 10 mg/kg (8 active/2 placebo) followed by eight patients in Thailand who were treated followed by 30 mg/kg (6 active/2 placebo). Eleven patients (4 That, 7 Lebanese) were treated with 20 mg/kg followed by 40 mg/kg (9 active [6 Lebanese/3 That]/2 placebo). Patients ranged in age from 17 to 49 with a median age of 31 and were comprised for 16 females and 5 males.
Patients were monitored every 2 weeks for laboratory studies, physical examinations, and adverse events. Further, patients were followed for hematologic parameters primarily focusing on hemoglobin and fetal hemoglobin (HbF). In addition, pharmacokinetic samples were obtained on Day 0 and 13, at pre-dose and 2, 4, 6, 8, 12, and 24 hours post-dosing. Hemoglobin was measured at each site using standard hematology equipment. HbF was measured using Varian HPLC. […] Adverse events in treated subjects included headache, upper respiratory infection, pyrexia, fatigue, nausea, and dizziness, but the rates of such events were not markedly different from those observed in the placebo-treated subjects.

With `CCC(C)(C)C(=O)[O-].[Na+]` [DMB, Sodium 2,2-dimethylbutyrate] the “effects on WBC levels or lymph node histopathology” value [1] was “no effects”, the “effects on WBC levels or lymph node histopathology” value [2] was “no effects” and the “numerical aberrations (polyploidy or endoreduplication)” value [3] was “No test article-related increase”. For the same molecule, the “structural chromosome aberrations compared to vehicle-treated cultures” value ([3]; 3 h ± S9 up to 5000 μg/mL, 22 h up to 588 μg/mL) was “no test article-related increases”, the “induction of structural or numerical chromosome aberrations” value ([3]; with and without metabolic activation) was “negative” and the “increase in reticulocyte counts” value (reticulocyte counts) was “approximately 6.7 fold”. For the same molecule, the “increase in human γ-globin mRNA synthesis relative to total non-α-globin” value (human γ-globin mRNA) was 2 fold, the “Increase % γ Globin Chain Synthesis” value (γ globin chain) was 6.6% and the “Increase Fold (γ globin chain synthesis)” value (γ globin chain) was 2.9. The “% γ Globin Chain Synthesis, Treatment” value (γ globin chain; baseline 3.4) was 10.0%, the “γ-globin mRNA expression relative to murine α-globin mRNA, mean increase above baseline” value (γ-globin mRNA) was 1.8 fold and the Dizziness ([4]; 10 mg/kg) was 2 (25) n (%). The Fatigue ([4]; 10 mg/kg) was 1 (13) n (%), the Headache ([4]; 10 mg/kg) was 5 (63) n (%) and the Nausea ([4]; 10 mg/kg) was 0 n (%). For the same molecule, the Pyrexia ([4]; 10 mg/kg) was 3 (38) n (%), the “Serious adverse event: Palpitations” value ([4]; 10 mg/kg) was 1 (13) 10 mg/kg n (%) and the “Treatment Related? (Palpitations)” value ([4]; 10 mg/kg) was “Not related to treatment”. For the same molecule, the “Upper Respiratory Tract Infection” value ([4]; 10 mg/kg) was 5 (63) n (%), the “subjects who discontinued study medication due to anemia” value ([4]; 10 mg/kg, considered not related to study medication) was “Two” and the Dizziness ([4]; 20 mg/kg) was 2 (22) n (%). The Fatigue ([4]; 20 mg/kg) was 0 n (%), the Headache ([4]; 20 mg/kg) was 3 (33) n (%) and the Nausea ([4]; 20 mg/kg) was 2 (22) n (%). The Pyrexia ([4]; 20 mg/kg) was 0 n (%), the “Serious adverse event: Suprapubic Pain” value ([4]; 20 mg/kg) was 1 (11) 20 mg/kg n (%) and the “Treatment Related? (Suprapubic Pain)” value ([4]; 20 mg/kg) was “Unlikely related”. The “Upper Respiratory Tract Infection” value ([4]; 20 mg/kg) was 2 (22) n (%), the Dizziness ([4]; 30 mg/kg) was 0 n (%) and the Fatigue ([4]; 30 mg/kg) was 0 n (%). The Headache ([4]; 30 mg/kg) was 2 (33) n (%), the Nausea ([4]; 30 mg/kg) was 0 n (%) and the Pyrexia ([4]; 30 mg/kg) was 2 (33) n (%). For the same molecule, the “Upper Respiratory Tract Infection” value ([4]; 30 mg/kg) was 1 (17) n (%), the Dizziness ([4]; 40 mg/kg) was 1 (11) n (%) and the Fatigue ([4]; 40 mg/kg) was 4 (44) n (%). The Headache ([4]; 40 mg/kg) was 1 (11) n (%), the Nausea ([4]; 40 mg/kg) was 3 (33) n (%) and the Pyrexia ([4]; 40 mg/kg) was 1 (11) n (%). The “Serious adverse event: Gastritis” value ([4]; 40 mg/kg) was 1 (11) 40 mg/kg n (%), the “Treatment Related? (Gastritis)” value ([4]; 40 mg/kg) was “Not related to treatment” and the “Upper Respiratory Tract Infection” value ([4]; 40 mg/kg) was 1 (11) n (%). The tolerability ([4]; 10 to 40 mg/kg/day, 8 weeks) was “well tolerated”, the “Serious adverse event: Gastroenteritis” value ([4]; HQK-1001 groups) was 0 n (%) and the “Serious adverse event: Upper Respiratory Infection” value ([4]; HQK-1001 groups) was 0 n (%).
